Laboratory results reported in patent US11484539B2, “Compounds and their uses for alleviating menopause-associated symptoms” (Estetra SPRL, priority 2018, dated 2022).

Tested on: post-menopausal women
Assay: Hot Flush Weekly Weighted Score, dose-finding study
Format: in vivo
Description: Further, the terms “Hot Flush Weekly Weighted Score”, as used herein, corresponds to a score taking into account frequency and severity which is calculated by using the severity score (as calculated above): [(1× No. of mild VMS)+(2× No. of moderate VMS)+(3× No. of severe VMS)] during a 7 day period.
Such a weighted score was for example used by Notelovitz et al. (“Initial 17β-Estradiol Dose for Treating Vasomotor Symptoms”; Obstetrics and Gynaecology, Vol. 95(5), May 2000, p. 726-731). This score was used to generate the data included in Example 1 further below, under section A. c) “Hot Flush Weekly Weighted Score”.

Which “LS adjusted mean change from baseline in Hot Flush Weekly Weighted Score” value (“LS adjusted mean change from baseline” for short) (2.5 mg E4, week 4) does the source give for C[C@]12CC[C@@H]3c4ccc(O)cc4CC[C@H]3[C@@H]1[C@@H](O)[C@@H](O)[C@@H]2O [E4, 1,3,5 (10)-estratrien-3,15alpha,16alpha,17beta-tetrol] here?
Its value is −75.37.

And the “LS adjusted mean change from baseline” value (2.5 mg E4, week 12)?
The value was −89.86.

What about the “Mean change from baseline in Hot Flush Weekly Weighted Score” value (2.5 mg E4 QD per os, week 0) of the same compound?
The value was 2.4151.

And the “Mean change from baseline in Hot Flush Weekly Weighted Score” value (2.5 mg E4 QD per os, week 1)?
Its value is −40.805.

What about the “Relative change (% from baseline) in Hot Flush Weekly Weighted Score, mean” value (2.5 mg E4 QD per os, week 1) of the same compound?
The value was −22%.

And the “Mean change from baseline in Hot Flush Weekly Weighted Score” value (2.5 mg E4 QD per os, week 2)?
The value was −58.6163.

And the “Relative change (% from baseline) in Hot Flush Weekly Weighted Score, mean” value (2.5 mg E4 QD per os, week 2)?
Its value is −32%.

What about the “Mean change from baseline in Hot Flush Weekly Weighted Score” value (2.5 mg E4 QD per os, week 3) of the same compound?
Its value is −74.8798.

What about the “Relative change (% from baseline) in Hot Flush Weekly Weighted Score, mean” value (2.5 mg E4 QD per os, week 3) of the same compound?
The value was −43%.

What about the “Mean change from baseline in Hot Flush Weekly Weighted Score” value (2.5 mg E4 QD per os, week 4) of the same compound?
The value was −82.75.

What about the “Relative change (% from baseline) in Hot Flush Weekly Weighted Score, mean” value (2.5 mg E4 QD per os, week 4) of the same compound?
The value was −47%.

And the “Mean change from baseline in Hot Flush Weekly Weighted Score” value (2.5 mg E4 QD per os, week 5)?
Its value is −84.6062.

And the “Relative change (% from baseline) in Hot Flush Weekly Weighted Score, mean” value (2.5 mg E4 QD per os, week 5)?
Its value is −48%.

And the “Mean change from baseline in Hot Flush Weekly Weighted Score” value (2.5 mg E4 QD per os, week 6)?
Its value is −89.9842.

And the “Relative change (% from baseline) in Hot Flush Weekly Weighted Score, mean” value (2.5 mg E4 QD per os, week 6)?
Its value is −51%.

And the “Mean change from baseline in Hot Flush Weekly Weighted Score” value (2.5 mg E4 QD per os, week 7)?
The value was −94.2468.

What about the “Relative change (% from baseline) in Hot Flush Weekly Weighted Score, mean” value (2.5 mg E4 QD per os, week 7) of the same compound?
The value was −53%.

What about the “Mean change from baseline in Hot Flush Weekly Weighted Score” value (2.5 mg E4 QD per os, week 8) of the same compound?
Its value is −97.1084.

And the “Relative change (% from baseline) in Hot Flush Weekly Weighted Score, mean” value (2.5 mg E4 QD per os, week 8)?
Its value is −55%.

What about the “Mean change from baseline in Hot Flush Weekly Weighted Score” value (2.5 mg E4 QD per os, week 9) of the same compound?
The value was −101.429.

What about the “Relative change (% from baseline) in Hot Flush Weekly Weighted Score, mean” value (2.5 mg E4 QD per os, week 9) of the same compound?
Its value is −57%.

What about the “Mean change from baseline in Hot Flush Weekly Weighted Score” value (2.5 mg E4 QD per os, week 10) of the same compound?
The value was −100.18.

And the “Relative change (% from baseline) in Hot Flush Weekly Weighted Score, mean” value (2.5 mg E4 QD per os, week 10)?
Its value is −57%.

And the “Mean change from baseline in Hot Flush Weekly Weighted Score” value (2.5 mg E4 QD per os, week 11)?
The value was −97.6016.

What about the “Relative change (% from baseline) in Hot Flush Weekly Weighted Score, mean” value (2.5 mg E4 QD per os, week 11) of the same compound?
The value was −56%.

What about the “Mean change from baseline in Hot Flush Weekly Weighted Score” value (2.5 mg E4 QD per os, week 12) of the same compound?
The value was −98.5424.

And the “Relative change (% from baseline) in Hot Flush Weekly Weighted Score, mean” value (2.5 mg E4 QD per os, week 12)?
The value was −57%.

What about the “Difference with placebo, LS adjusted mean, absolute change in Hot Flush Weekly Weighted Score” value (2.5 mg E4 vs placebo, week 4) of the same compound?
The value was 2.897.

And the “Difference with placebo, LS adjusted mean, absolute change in Hot Flush Weekly Weighted Score” value (2.5 mg E4 vs placebo, week 12)?
The value was 14.83.

What about the “Differences with placebo, relative change in weekly weighted score, p_value” (2.5 mg vs 0 mg, week 4) of the same compound?
The value was 1.0000.

What about the “Differences with placebo, relative change in weekly weighted score, p_value” (2.5 mg vs 0 mg, week 12) of the same compound?
The value was 0.6744.

What about the “Relative change (% from baseline) in weekly weighted score, LS adjusted mean” value (2.5 mg, Week 12) of the same compound?
Its value is −0.5795.

What about the “Relative change (% from baseline) in weekly weighted score, LS adjusted mean” value (2.5 mg, week 4) of the same compound?
The value was −0.474.

What about the “LS adjusted mean change from baseline” value (5 mg E4, week 4) of the same compound?
Its value is −66.88.

And the “LS adjusted mean change from baseline” value (5 mg E4, week 12)?
Its value is −95.92.

What about the “Mean change from baseline in Hot Flush Weekly Weighted Score” value (5 mg E4 QD per os, week 0) of the same compound?
The value was 1.8297.

What about the “Mean change from baseline in Hot Flush Weekly Weighted Score” value (5 mg E4 QD per os, week 1) of the same compound?
The value was −33.7092.

And the “Relative change (% from baseline) in Hot Flush Weekly Weighted Score, mean” value (5 mg E4 QD per os, week 1)?
The value was −22%.

And the “Mean change from baseline in Hot Flush Weekly Weighted Score” value (5 mg E4 QD per os, week 2)?
The value was −49.1319.

What about the “Relative change (% from baseline) in Hot Flush Weekly Weighted Score, mean” value (5 mg E4 QD per os, week 2) of the same compound?
The value was −32%.

And the “Mean change from baseline in Hot Flush Weekly Weighted Score” value (5 mg E4 QD per os, week 3)?
Its value is −56.9697.

And the “Relative change (% from baseline) in Hot Flush Weekly Weighted Score, mean” value (5 mg E4 QD per os, week 3)?
Its value is −37%.

What about the “Mean change from baseline in Hot Flush Weekly Weighted Score” value (5 mg E4 QD per os, week 4) of the same compound?
Its value is −64.8344.

And the “Relative change (% from baseline) in Hot Flush Weekly Weighted Score, mean” value (5 mg E4 QD per os, week 4)?
Its value is −43%.

And the “Mean change from baseline in Hot Flush Weekly Weighted Score” value (5 mg E4 QD per os, week 5)?
The value was −71.6181.

What about the “Relative change (% from baseline) in Hot Flush Weekly Weighted Score, mean” value (5 mg E4 QD per os, week 5) of the same compound?
The value was −46%.

And the “Mean change from baseline in Hot Flush Weekly Weighted Score” value (5 mg E4 QD per os, week 6)?
The value was −88.2337.

What about the “Relative change (% from baseline) in Hot Flush Weekly Weighted Score, mean” value (5 mg E4 QD per os, week 6) of the same compound?
The value was −56%.

And the “Mean change from baseline in Hot Flush Weekly Weighted Score” value (5 mg E4 QD per os, week 7)?
Its value is −88.2989.

What about the “Relative change (% from baseline) in Hot Flush Weekly Weighted Score, mean” value (5 mg E4 QD per os, week 7) of the same compound?
The value was −56%.

What about the “Mean change from baseline in Hot Flush Weekly Weighted Score” value (5 mg E4 QD per os, week 8) of the same compound?
Its value is −89.2039.

What about the “Relative change (% from baseline) in Hot Flush Weekly Weighted Score, mean” value (5 mg E4 QD per os, week 8) of the same compound?
The value was −56%.

What about the “Mean change from baseline in Hot Flush Weekly Weighted Score” value (5 mg E4 QD per os, week 9) of the same compound?
The value was −90.923.

And the “Relative change (% from baseline) in Hot Flush Weekly Weighted Score, mean” value (5 mg E4 QD per os, week 9)?
Its value is −58%.

What about the “Mean change from baseline in Hot Flush Weekly Weighted Score” value (5 mg E4 QD per os, week 10) of the same compound?
The value was −91.4798.

And the “Relative change (% from baseline) in Hot Flush Weekly Weighted Score, mean” value (5 mg E4 QD per os, week 10)?
Its value is −59%.

And the “Mean change from baseline in Hot Flush Weekly Weighted Score” value (5 mg E4 QD per os, week 11)?
The value was −95.8365.

And the “Relative change (% from baseline) in Hot Flush Weekly Weighted Score, mean” value (5 mg E4 QD per os, week 11)?
The value was −61%.

And the “Mean change from baseline in Hot Flush Weekly Weighted Score” value (5 mg E4 QD per os, week 12)?
Its value is −93.5117.

And the “Relative change (% from baseline) in Hot Flush Weekly Weighted Score, mean” value (5 mg E4 QD per os, week 12)?
Its value is −60%.

What about the “Difference with placebo, LS adjusted mean, absolute change in Hot Flush Weekly Weighted Score” value (5 mg E4 vs placebo, week 4) of the same compound?
The value was 11.39.

And the “Difference with placebo, LS adjusted mean, absolute change in Hot Flush Weekly Weighted Score” value (5 mg E4 vs placebo, week 12)?
Its value is 8.767.

What about the “Differences with placebo, relative change in weekly weighted score, p_value” (5.0 mg vs 0 mg, week 4) of the same compound?
The value was 0.8833.

What about the “Differences with placebo, relative change in weekly weighted score, p_value” (5.0 mg vs 0 mg, week 12) of the same compound?
Its value is 0.8871.

What about the “Relative change (% from baseline) in weekly weighted score, LS adjusted mean” value (5 mg, Week 12) of the same compound?
Its value is −0.5993.

And the “Relative change (% from baseline) in weekly weighted score, LS adjusted mean” value (5 mg, week 4)?
Its value is −0.4262.

And the “LS adjusted mean change from baseline” value (10 mg E4, week 4)?
Its value is −85.56.

And the “LS adjusted mean change from baseline” value (10 mg E4, week 12)?
Its value is −109.8.

And the “Mean change from baseline in Hot Flush Weekly Weighted Score” value (10 mg E4 QD per os, week 0)?
The value was 2.3773.

What about the “Mean change from baseline in Hot Flush Weekly Weighted Score” value (10 mg E4 QD per os, week 1) of the same compound?
The value was −31.4591.

What about the “Relative change (% from baseline) in Hot Flush Weekly Weighted Score, mean” value (10 mg E4 QD per os, week 1) of the same compound?
Its value is −20%.

And the “Mean change from baseline in Hot Flush Weekly Weighted Score” value (10 mg E4 QD per os, week 2)?
Its value is −54.0849.

What about the “Relative change (% from baseline) in Hot Flush Weekly Weighted Score, mean” value (10 mg E4 QD per os, week 2) of the same compound?
Its value is −35%.

What about the “Mean change from baseline in Hot Flush Weekly Weighted Score” value (10 mg E4 QD per os, week 3) of the same compound?
Its value is −73.5189.

What about the “Relative change (% from baseline) in Hot Flush Weekly Weighted Score, mean” value (10 mg E4 QD per os, week 3) of the same compound?
Its value is −47%.

And the “Mean change from baseline in Hot Flush Weekly Weighted Score” value (10 mg E4 QD per os, week 4)?
The value was −87.2673.

And the “Relative change (% from baseline) in Hot Flush Weekly Weighted Score, mean” value (10 mg E4 QD per os, week 4)?
The value was −54%.

And the “Mean change from baseline in Hot Flush Weekly Weighted Score” value (10 mg E4 QD per os, week 5)?
Its value is −93.4648.

And the “Relative change (% from baseline) in Hot Flush Weekly Weighted Score, mean” value (10 mg E4 QD per os, week 5)?
Its value is −58%.

And the “Mean change from baseline in Hot Flush Weekly Weighted Score” value (10 mg E4 QD per os, week 6)?
Its value is −101.646.

What about the “Relative change (% from baseline) in Hot Flush Weekly Weighted Score, mean” value (10 mg E4 QD per os, week 6) of the same compound?
The value was −64%.

And the “Mean change from baseline in Hot Flush Weekly Weighted Score” value (10 mg E4 QD per os, week 7)?
The value was −103.024.

What about the “Relative change (% from baseline) in Hot Flush Weekly Weighted Score, mean” value (10 mg E4 QD per os, week 7) of the same compound?
The value was −64%.

And the “Mean change from baseline in Hot Flush Weekly Weighted Score” value (10 mg E4 QD per os, week 8)?
The value was −104.835.

What about the “Relative change (% from baseline) in Hot Flush Weekly Weighted Score, mean” value (10 mg E4 QD per os, week 8) of the same compound?
The value was −66%.

And the “Mean change from baseline in Hot Flush Weekly Weighted Score” value (10 mg E4 QD per os, week 9)?
The value was −107.578.
